In patent US20230043863A1, “HETEROAROMATIC DERIVATIVES FOR USE AS REGULATOR, PREPARATION METHOD THEREFOR AND USE THEREOF” (JIANGSU HANSOH PHARMACEUTICAL GROUP CO., LTD., priority 2018, published 2023):

test system: C57BL/6 mouse colitis model induced by DSS; experiment: C57BL/6 mouse colitis model induced by DSS, daily disease index; type: in vivo; settings: po, 216 h, 10 mg/kg p.o. BID, Day 0-9, vs vehicle group, read-out: reduction ratio of DAI AUC
Protocol: To evaluate the drug efficacy of the embodiment compound on the C57BL/6 mouse colitis model induced by DSS (dextran sulfate sodium).
According to the weight of the animal, BioBook software was used to randomly group the animals on day −1 to ensure that the weight values of each group of animals were similar to reduce deviation, and the grouping and dosing regimen are shown in the following Table.
Drinking water containing DSS: an appropriate amount of DSS powder was dissolved in the autoclaved drinking water to prepare a 2% DSS solution.
On day −1, the animals were equally divided into 12 groups with 10 animals in each group. (Refer to Table 1 for specific grouping scheme)
From 9:00 on day 0 to 9:00 on day 6, the mice in groups 2 to 9 were given 2% DSS aqueous solution for 6 days (from day 0 to day 6), after which the mice were allowed to freely drink normal water for 3 days (from 9:00 on day 6 to before necropsy on day 9). The day of modeling was counted as day 0. The DSS aqueous solution was wrapped in tin foil to protect it from light. The DSS aqueous solution was replaced every 2 days.
The mice in group 1 are allowed to drink normal water freely for 9 days (from 9:00 on day 0 to before necropsy on day 9).
The recording frequency was once a day, and 4 levels were rated according to the following standards:
Bloody stool (0: negative; 4: positive);
Stool score (0: normal; 2: loose stool; 4: diarrhea)
Daily Disease Index (DAI) was obtained by dividing the sum the scores of the above 3 parts by 3. DAI-time (day) curve based on the daily DAI score was plotted, and the peak area (AUC) under the curve was calculated. The reduction ratio of DAI AUC was calculated by comparing the administration group with the vehicle group, with a calculation formula of (DAI AUCadministration group-DAI AUCvehicle)/DAI AUCVehicle×100%

SMILES	change in vivo at 10 mg/kg
Cc1cc(Nc2nc(N[C@@H]3C[C@H]4CC[C@@H](C3)N4CCC#N)nc3ccsc23)n[nH]1 [Embodiment 60, 3-((3-exo)-3-((4-((5-methyl-1H-pyrazol-3-yl)amino)thieno[3,2-d]pyrimidin-2-yl)amino)-8-azabicyclo[3.2.1]oct-8-yl)propionitrile]	-20.8%
COc1ccc2c(Nc3cc(C)[nH]n3)nc(N[C@@H]3C[C@H]4CC[C@@H](C3)N4CCC#N)nc2c1 [Embodiment 169, 3-((3-exo)-3-((7-methoxyl-4-((5-methyl-1H-pyrazol-3-yl)amino)quinazolin-2-yl)amino)-8-azabicyclo[3.2.1]oct-8-yl)propionitrile]	-34.3%
Cc1cc(Nc2nc(N[C@@H]3C[C@H]4CC[C@@H](C3)N4CCC#N)nc3cc(Br)ccc23)n[nH]1 [Embodiment 170, 3-((3-exo)-3-((7-bromine-4-((5-methyl-1H-pyrazol-3-yl)amino)quinazolin-2-yl)amino)-8-azabicyclo[3.2.1]oct-8-yl)propionitrile]	-27.9%
Cc1cc(Nc2nc(N[C@@H]3C[C@H]4CC[C@@H](C3)N4S(=O)(=O)N3CC(C#N)C3)nc3ccccc23)n[nH]1 [Embodiment 213, 1-(((3-exo)-3-((4-((5-methyl-1H-pyrazol-3-yl)amino)quinazolin-2-yl)amino)-8-azabicyclo[3.2.1]oct-8-yl)sulfonyl)azetindin-3-formonitrile]	-24.4%
Cc1cc(Nc2nc(N[C@@H]3C[C@H]4CC[C@@H](C3)N4S(=O)(=O)N3CC(C#N)C3)nc3cc(Cl)ccc23)n[nH]1 [Embodiment 214]	-28.9%
Cc1cc(Nc2nc(N[C@@H]3C[C@H]4CCC[C@@H](C3)N4C(=O)CN3CCOCC3)nc3sccc23)n[nH]1 [Embodiment 246, 1-((3-exo)-3-((4-((5-methyl-1H-pyrazol-3-yl)amino)thieno[2,3-d]pyrimidin-2-yl)amino)-9-azabicyclo[3.3.1]non-9-yl)-2-morpholinoethane-1-one]	-38.6%
CNCC(=O)N1[C@@H]2CCC[C@H]1C[C@H](Nc1nc(Nc3cc(C)[nH]n3)c3ccsc3n1)C2 [Embodiment 247, 1-((3-exo)-3-((4-((5-methyl-1H-pyrazol-3-yl)amino)thieno[2,3-d]pyrimidin-2-yl)amino)-9-azabicyclo[3.3.1]non-9-yl)-2-(methylamino)-ethane-1-one]	-22.1%
Cc1cc(Nc2nc(N[C@@H]3C[C@H]4CCC[C@@H](C3)N4C(=O)c3ccccn3)nc3sccc23)n[nH]1 [Embodiment 260, ((3-exo)-3-((4-((5-methyl-1H-pyrazol-3-yl)amino)thieno[2,3-d]pyrimidin-2-yl)amino)-9-azabicyclo[3.3.1]non-9-yl)(pyridin-2-yl)methanone]	-23.4%
Cc1cc(Nc2nc(N[C@@H]3C[C@H]4CCC[C@@H](C3)N4CCC#N)nc3scnc23)n[nH]1 [Embodiment 278, 3-((3-exo)-3-((7-((5-methyl-1H-pyrazol-3-yl)amino)thiazolo[5,4-d]pyrimidin-5-yl)amino)-9-azabicyclo[3.3.1]non-9-yl)propionitrile]	-34.9%
